Measured values as given in patent publication EP2365972B1, “MODULATORS OF ATP-BINDING CASSETTE TRANSPORTERS” (Vertex Pharmaceuticals Incorporated, priority 2008, dated 2010).

Target: T1, ΔF508-CFTR (Homo sapiens, UniProt P13569, DEL508-508)
T1 construct: expressed in transfected cells
Assay: Membrane potential optical assay for ΔF508-CFTR correction (single-addition HTS format)
Format: cell-based
Details: NIH 3T3 cells expressing ΔF508-CFTR, 16-24 hrs with test compound, 10 µM forskolin and genistein (20 µM); for Emax: NIH3T3, read-out: Binned Max Efficacy; for EC50: read-out: Binned EC50
From the text: Membrane potential optical methods for assaying ΔF508-CFTR modulation properties of compounds.
The assay utilizes fluorescent voltage sensing dyes to measure changes in membrane potential using a fluorescent plate reader (e.g., FLIPR III, Molecular Devices, Inc.) as a readout for increase in functional ΔF508-CFTR in NIH 3T3 cells. The driving force for the response is the creation of a chloride ion gradient in conjunction with channel activation by a single liquid addition step after the cells have previously been treated with compounds and subsequently loaded with a voltage sensing dye.
To identify small molecules that correct the trafficking defect associated with ΔF508-CFTR; a single-addition HTS assay format was developed. Assay Plates containing cells are incubated for ∼2-4 hours in tissue culture incubator at 37°C, 5%CO2, 90% humidity. Cells are then ready for compound exposure after adhering to the bottom of the assay plates.
The cells were incubated in serum-free medium for 16-24 hrs in tissue culture incubator at 37°C, 5%CO2, 90% humidity in the presence or absence (negative control) of test compound. The cells were subsequently rinsed 3X with Krebs Ringers solution and loaded with a voltage sensing redistribution dye. To activate ΔF508-CFTR, 10 µM forskolin and the CFTR potentiator, genistein (20 µM), were added along with Cl^--free medium to each well. The addition of Cl^--free medium promoted Cl^- efflux in response to ΔF508-CFTR activation and the resulting membrane depolarization was optically monitored using voltage sensor dyes.
Bath Solution #1: (in mM) NaCl 160, KCl 4.5, CaCl2 2, MgCl2 1, HEPES 10, pH 7.4 with NaOH.
Chloride-free bath solution: Chloride salts in Bath Solution #1 are substituted with gluconate salts.
NIH3T3 mouse fibroblasts stably expressing ΔF508-CFTR are used for optical measurements of membrane potential. The cells are maintained at 37 °C in 5% CO2 and 90 % humidity in Dulbecco's modified Eagle's medium supplemented with 2 mM glutamine, 10 % fetal bovine serum, 1 X NEAA, β-ME, 1 X pen/strep, and 25 mM HEPES in 175 cm^2 culture flasks. For all optical assays, the cells were seeded at […] in 384-well matrigel-coated plates and cultured for 2 hrs at 37 °C before culturing at 27 °C for 24 hrs. for the potentiator assay. For the correction assays, the cells are cultured at 27 °C or 37 °C with and without compounds for 16 - 24 hours.

T1 sequence (P13569 with tags, fused parts or gaps DEL508-508): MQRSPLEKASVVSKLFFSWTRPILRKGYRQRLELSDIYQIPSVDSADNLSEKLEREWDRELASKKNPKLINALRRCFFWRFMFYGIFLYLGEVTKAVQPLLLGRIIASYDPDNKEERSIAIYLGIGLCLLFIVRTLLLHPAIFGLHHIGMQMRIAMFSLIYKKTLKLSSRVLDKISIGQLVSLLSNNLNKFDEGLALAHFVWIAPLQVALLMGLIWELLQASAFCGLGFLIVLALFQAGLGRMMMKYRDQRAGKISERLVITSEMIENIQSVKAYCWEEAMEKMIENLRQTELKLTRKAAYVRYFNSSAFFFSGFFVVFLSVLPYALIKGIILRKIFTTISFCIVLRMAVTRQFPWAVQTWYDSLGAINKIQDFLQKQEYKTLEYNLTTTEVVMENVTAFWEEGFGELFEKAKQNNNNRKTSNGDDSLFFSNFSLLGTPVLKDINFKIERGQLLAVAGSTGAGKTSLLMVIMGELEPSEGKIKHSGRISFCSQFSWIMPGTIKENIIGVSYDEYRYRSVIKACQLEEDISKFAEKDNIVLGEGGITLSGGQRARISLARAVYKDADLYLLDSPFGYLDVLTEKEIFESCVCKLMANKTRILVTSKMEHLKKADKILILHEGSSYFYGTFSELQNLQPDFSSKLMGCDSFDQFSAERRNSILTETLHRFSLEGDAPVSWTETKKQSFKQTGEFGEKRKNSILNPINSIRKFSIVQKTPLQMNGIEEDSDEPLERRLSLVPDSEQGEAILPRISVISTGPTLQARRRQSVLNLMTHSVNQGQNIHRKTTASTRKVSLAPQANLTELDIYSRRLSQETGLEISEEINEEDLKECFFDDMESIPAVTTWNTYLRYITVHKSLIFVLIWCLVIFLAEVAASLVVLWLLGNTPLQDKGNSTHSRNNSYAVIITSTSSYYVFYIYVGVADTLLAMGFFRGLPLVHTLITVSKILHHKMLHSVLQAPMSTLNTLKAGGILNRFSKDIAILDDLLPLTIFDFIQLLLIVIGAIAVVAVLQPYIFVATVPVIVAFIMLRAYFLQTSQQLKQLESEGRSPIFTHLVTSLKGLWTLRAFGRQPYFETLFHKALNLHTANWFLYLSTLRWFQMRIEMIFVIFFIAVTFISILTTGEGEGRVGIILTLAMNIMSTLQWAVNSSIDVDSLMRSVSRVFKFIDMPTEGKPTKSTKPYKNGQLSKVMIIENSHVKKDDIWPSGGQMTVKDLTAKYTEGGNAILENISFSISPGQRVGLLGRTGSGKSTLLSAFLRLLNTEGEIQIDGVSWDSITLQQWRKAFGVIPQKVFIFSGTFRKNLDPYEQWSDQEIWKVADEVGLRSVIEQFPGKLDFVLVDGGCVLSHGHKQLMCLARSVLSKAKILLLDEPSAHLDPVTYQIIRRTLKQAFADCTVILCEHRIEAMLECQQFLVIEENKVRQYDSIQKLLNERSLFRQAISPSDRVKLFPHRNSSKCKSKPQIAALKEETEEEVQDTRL

Row | Emax | EC50 | Compound | Binned Max Efficacy
1 | > 100% | < 2000 nM | CC(C)(CCOC[C@@H](O)CO)c1cc2cc(NC(=O)C3(c4ccc5c(c4)OC(F)(F)O5)CC3)c(F)cc2n1C[C@@H](O)CO [Compound 310, 1-(2,2-difluorobenzo[d][1,3]dioxol-5-yl)-N-(2-(4-((S)-2,3-dihydroxypropoxy)-2-methylbutan-2-yl)-1-((R)-2,3-dihydroxypropyl)-6-fluoro-1H-indol-5-yl)cyclopropanecarboxamide] | 
2 | > 100% | < 2000 nM | CC(C)(C)c1cc2c(C#N)c(NC(=O)C3(c4ccc5c(c4)OC(F)(F)O5)CC3)ccc2n1CCO [Compound 315, N-(2-tert-butyl-4-cyano-1-(2-hydroxyethyl)-1H-indol-5-yl)-1-(2,2-difluorobenzo[d][1,3]dioxol-5-yl)cyclopropanecarboxamide] | 
3 | > 100% | < 2000 nM | CC(C)(C)c1cc2cc(NC(=O)C3(c4ccc5c(c4)OCO5)CC3)c(F)cc2n1CC(O)CO (stereo not drawn) [Compound 318] | 
4 | > 100% | < 2000 nM | CC(C)(CCO)c1cc2cc(NC(=O)C3(c4ccc5c(c4)OC(F)(F)O5)CC3)c(F)cc2n1C[C@@H](O)CO [Compound 311, (R)-1-(2,2-difluorobenzo[d][1,3]dioxol-5-yl)-N-(1-(2,3-dihydroxypropyl)-6-fluoro-2-(4-hydroxy-2-methylbutan-2-yl)-1H-indol-5-yl)cyclopropanecarboxamide] | 
5 | > 100% | < 2000 nM | CC(C)(CCOC[C@@H](O)CO)c1cc2cc(NC(=O)C3(c4ccc5c(c4)OC(F)(F)O5)CC3)c(F)cc2[nH]1 [Compound 309, (S)-1-(2,2-difluorobenzo[d][1,3]dioxol-5-yl)-N-(2-(4-(2,3-dihydroxypropoxy)-2-methylbutan-2-yl)-6-fluoro-1H-indol-5-yl)cyclopropanecarboxamide] | 

Row | Compound | Emax | EC50 | Binned Max Efficacy
6 | 2-(2-tert-butyl-5-(1-(2,2-difluorobenzo[d][1,3]dioxol-5-yl)cyclopropanecarboxamido)-6-fluoro-1H-indol-1-yl)-N,N,N-trimethylethanaminium chloride [Compound 308] |  | 2000 to 5000 nM | +++ ("+++" means > 100%)
